Experimental data reported in patent US6355799B1, “Substituted benzene compounds, process for their preparation, and herbicidal and defoliant compositions containing them” (ISK Americas Incorporated, priority 1997, dated 2002).

Assays:
Type in all cases: in vivo
[1] = test system: redroot pigweed (Amaranthus retroflexus, AMARE); experiment: Pre-emerge test, greenhouse herbicide activity screening; details: pre-emerge, phytotoxicity rating 0-100 at 14 days after application
In short: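 Compounds in acetone were track-sprayed at 187 l/ha, 15–1000 g ai/ha, onto sandy loam pots. Pre-emerge seeds were sown one day before spraying, with surface watering afterwards. Post-emerge plants were at the 2–3 leaf stage and sprayed with 0.25% v/v non-ionic surfactant. Injury was rated 0–100 at 14 days.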

[2] = test system: large crabgrass (Digitaria sanguinalis, DIGSA); experiment: Post-emerge test, greenhouse herbicide activity screening; details: post-emerge, phytotoxicity rating 0-100 at 14 days after application
In short: (§1)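 Visual ratings on a 0-100 scale (0 no damage, 100 all plants dead) were taken at 14 days after treatment. Rates of 15-1000 g ai/ha in acetone, 187 l/ha, were sprayed onto soil one day after planting (pre-emerge) or onto 2-3 leaf plants with 0.25% v/v surfactant (post-emerge).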

[3] = test system: redroot pigweed (Amaranthus retroflexus, AMARE); experiment: as above; details: post-emerge, phytotoxicity rating 0-100 at 14 days after application
In short: as §1

[4] = test system: johnsongrass (Sorghum halepense, SORHA); experiment: as above; details: post-emerge, phytotoxicity rating 0-100 at 14 days after application
In short: as §1

[5] = test system: barnyardgrass (Echinochloa crus-galli, ECHCG); experiment: as above; details: post-emerge, phytotoxicity rating 0-100 at 14 days after application
In short: as §1

[6] = test system: lambsquarters (Chenopodium album, CHEAL); experiment: as above; details: post-emerge, phytotoxicity rating 0-100 at 14 days after application
In short: as §1

[7] = test system: ivyleaf morningglory (Ipomoea hederacea, IPOHE); experiment: as above; details: post-emerge, phytotoxicity rating 0-100 at 14 days after application
In short: as §1

[8] = test system: sicklepod (Cassia obtusifolia, CASOB); experiment: as above; details: post-emerge, phytotoxicity rating 0-100 at 14 days after application
In short: as §1

[9] = test system: velvetleaf (Abutilon theophrasti, ABUTH); experiment: as above; details: post-emerge, phytotoxicity rating 0-100 at 14 days after application
In short: as §1

[10] = test system: green foxtail (Setaria viridis, SETVI); experiment: as above; details: post-emerge, phytotoxicity rating 0-100 at 14 days after application
In short: as §1

[11] = test system: large crabgrass (Digitaria sanguinalis, DIGSA); experiment: Pre-emerge test, greenhouse herbicide activity screening; details: pre-emerge, phytotoxicity rating 0-100 at 14 days after application
In short: (§2)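 Applied at 15–1000 g ai/ha from acetone in 187 l/ha spray volume. Post-emergence applications included 0.25% v/v non-ionic surfactant and reached plants sown 8–21 days before. Pre-emergence applications were incorporated by surface watering. Efficacy or crop damage was rated on a 0–100 scale after 14 days.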

[12] = test system: johnsongrass (Sorghum halepense, SORHA); experiment: as above; details: pre-emerge, phytotoxicity rating 0-100 at 14 days after application
In short: as §2

[13] = test system: barnyardgrass (Echinochloa crus-galli, ECHCG); experiment: as above; details: pre-emerge, phytotoxicity rating 0-100 at 14 days after application
In short: as §2

[14] = test system: lambsquarters (Chenopodium album, CHEAL); experiment: as above; details: pre-emerge, phytotoxicity rating 0-100 at 14 days after application
In short: as §2

[15] = test system: ivyleaf morningglory (Ipomoea hederacea, IPOHE); experiment: as above; details: pre-emerge, phytotoxicity rating 0-100 at 14 days after application
In short: as §2

[16] = test system: sicklepod (Cassia obtusifolia, CASOB); experiment: as above; details: pre-emerge, phytotoxicity rating 0-100 at 14 days after application
In short: as §2

[17] = test system: velvetleaf (Abutilon theophrasti, ABUTH); experiment: as above; details: pre-emerge, phytotoxicity rating 0-100 at 14 days after application
In short: as §2

[18] = test system: green foxtail (Setaria viridis, SETVI); experiment: as above; details: pre-emerge, phytotoxicity rating 0-100 at 14 days after application
In short: as §2

[19] = test system: upland rice (Oryza sp., var. Tebonnet, RICE); experiment: Pre-emerge test, crop safety; details: crop damage, pre-emerge, phytotoxicity rating 0-100 at 14 days after application
In short: (§3)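 Plants grown in 10 cm pots of sandy loam mix received acetone-dissolved compounds through a moving flat-fan nozzle. Doses ranged from 15 to 1000 g ai/ha. Pre-emerge pots were seeded one day earlier, post-emerge pots 8–21 days earlier. Fourteen days on, each pot was graded 0–100 for damage.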

[20] = test system: field corn (Zea mays L., var. Dekalb 535, CORN); experiment: Pre-emerge test, crop safety; details: crop damage, pre-emerge, phytotoxicity rating 0-100 at 14 days after application
In short: as §3

[21] = test system: upland rice (Oryza sp., var. Tebonnet, RICE); experiment: Post-emerge test, crop safety; details: post-emerge, crop damage rating 0-100 at 14 days after application
In short: as §2

[22] = test system: field corn (Zea mays L., var. Dekalb 535, CORN); experiment: Post-emerge test, crop safety; details: post-emerge, crop damage rating 0-100 at 14 days after application
In short: as §2

COc1c(Cl)cc(F)c(N2C(=O)C3=C(CCCC3)C2=O)c1N [8-7]
Pre-emerge Herbicidal Activity AMARE ([1]; rate 63 g ai/ha): 99 | Pre-emerge Herbicidal Activity AMARE ([1]; rate 250 g ai/ha): 100 | Post-emerge Herbicidal Activity DIGSA ([2]; 63 g ai/ha): 0 | Post-emerge Herbicidal Activity DIGSA ([2]; 250 g ai/ha): 10 | Post-emerge Herbicidal Activity AMARE ([3]; 63 g ai/ha): 95 | Post-emerge Herbicidal Activity AMARE ([3]; 250 g ai/ha): 100 | Post-emerge Herbicidal Activity SORHA ([4]; 63 g ai/ha): 0 | Post-emerge Herbicidal Activity SORHA ([4]; 250 g ai/ha): 0 | Post-emerge Herbicidal Activity ECHCG ([5]; 63 g ai/ha): 0 | Post-emerge Herbicidal Activity ECHCG ([5]; 250 g ai/ha): 20 | Post-emerge Herbicidal Activity CHEAL ([6]; 63 g ai/ha): 95 | Post-emerge Herbicidal Activity CHEAL ([6]; 250 g ai/ha): 99 | Post-emerge Herbicidal Activity IPOHE ([7]; 63 g ai/ha): 10 | Post-emerge Herbicidal Activity IPOHE ([7]; 250 g ai/ha): 70 | Post-emerge Herbicidal Activity CASOB ([8]; 63 g ai/ha): 0 | Post-emerge Herbicidal Activity CASOB ([8]; 250 g ai/ha): 90 | Post-emerge Herbicidal Activity ABUTH ([9]; 63 g ai/ha): 95 | Post-emerge Herbicidal Activity ABUTH ([9]; 250 g ai/ha): 100 | Post-emerge Herbicidal Activity SETVI ([10]; 63 g ai/ha): 0 | Post-emerge Herbicidal Activity SETVI ([10]; 250 g ai/ha): 90 | Pre-emerge Herbicidal Activity DIGSA ([11]; rate 63 g ai/ha): 50 | Pre-emerge Herbicidal Activity DIGSA ([11]; rate 250 g ai/ha): 80 | Pre-emerge Herbicidal Activity SORHA ([12]; rate 63 g ai/ha): 10 | Pre-emerge Herbicidal Activity SORHA ([12]; rate 250 g ai/ha): 70 | Pre-emerge Herbicidal Activity ECHCG ([13]; rate 63 g ai/ha): 0 | Pre-emerge Herbicidal Activity ECHCG ([13]; rate 250 g ai/ha): 70 | Pre-emerge Herbicidal Activity CHEAL ([14]; rate 63 g ai/ha): 95 | Pre-emerge Herbicidal Activity CHEAL ([14]; rate 250 g ai/ha): 100 | Pre-emerge Herbicidal Activity IPOHE ([15]; rate 63 g ai/ha): 0 | Pre-emerge Herbicidal Activity IPOHE ([15]; rate 250 g ai/ha): 0 | Pre-emerge Herbicidal Activity CASOB ([16]; rate 63 g ai/ha): 0 | Pre-emerge Herbicidal Activity CASOB ([16]; rate 250 g ai/ha): 0 | Pre-emerge Herbicidal Activity ABUTH ([17]; rate 63 g ai/ha): 100 | Pre-emerge Herbicidal Activity ABUTH ([17]; rate 250 g ai/ha): 100 | Pre-emerge Herbicidal Activity SETVI ([18]; rate 63 g ai/ha): 95 | Pre-emerge Herbicidal Activity SETVI ([18]; rate 250 g ai/ha): 99 | Pre-emerge Herbicidal Activity RICE ([19]; rate 63 g ai/ha): 0 | Pre-emerge Herbicidal Activity RICE ([19]; rate 250 g ai/ha): 0 | Pre-emerge Herbicidal Activity CORN ([20]; rate 63 g ai/ha): 0 | Pre-emerge Herbicidal Activity CORN ([20]; rate 250 g ai/ha): 10 | Post-emerge Herbicidal Activity RICE ([21]; 63 g ai/ha): 0 | Post-emerge Herbicidal Activity RICE ([21]; 250 g ai/ha): 90 | Post-emerge Herbicidal Activity CORN ([22]; 63 g ai/ha): 10 | Post-emerge Herbicidal Activity CORN ([22]; 250 g ai/ha): 10

Cc1c(Cl)cc(F)c(-n2c(=O)cc(C(F)(F)F)n(C)c2=O)c1NC(=O)OCc1ccc(Cl)cc1Cl [4-62]
Pre-emerge Herbicidal Activity AMARE ([1]; rate 63 g ai/ha): 100 | Pre-emerge Herbicidal Activity AMARE ([1]; rate 250 g ai/ha): 100 | Post-emerge Herbicidal Activity DIGSA ([2]; 63 g ai/ha): 10 | Post-emerge Herbicidal Activity DIGSA ([2]; 250 g ai/ha): 50 | Post-emerge Herbicidal Activity AMARE ([3]; 63 g ai/ha): 100 | Post-emerge Herbicidal Activity AMARE ([3]; 250 g ai/ha): 100 | Post-emerge Herbicidal Activity SORHA ([4]; 63 g ai/ha): 30 | Post-emerge Herbicidal Activity SORHA ([4]; 250 g ai/ha): 30 | Post-emerge Herbicidal Activity ECHCG ([5]; 63 g ai/ha): 20 | Post-emerge Herbicidal Activity ECHCG ([5]; 250 g ai/ha): 40 | Post-emerge Herbicidal Activity CHEAL ([6]; 63 g ai/ha): 100 | Post-emerge Herbicidal Activity CHEAL ([6]; 250 g ai/ha): 100 | Post-emerge Herbicidal Activity IPOHE ([7]; 63 g ai/ha): 100 | Post-emerge Herbicidal Activity IPOHE ([7]; 250 g ai/ha): 100 | Post-emerge Herbicidal Activity CASOB ([8]; 63 g ai/ha): 90 | Post-emerge Herbicidal Activity CASOB ([8]; 250 g ai/ha): 100 | Post-emerge Herbicidal Activity ABUTH ([9]; 63 g ai/ha): 100 | Post-emerge Herbicidal Activity ABUTH ([9]; 250 g ai/ha): 100 | Post-emerge Herbicidal Activity SETVI ([10]; 63 g ai/ha): 60 | Post-emerge Herbicidal Activity SETVI ([10]; 250 g ai/ha): 80 | Pre-emerge Herbicidal Activity DIGSA ([11]; rate 63 g ai/ha): 50 | Pre-emerge Herbicidal Activity DIGSA ([11]; rate 250 g ai/ha): 90 | Pre-emerge Herbicidal Activity SORHA ([12]; rate 63 g ai/ha): 10 | Pre-emerge Herbicidal Activity SORHA ([12]; rate 250 g ai/ha): 50 | Pre-emerge Herbicidal Activity ECHCG ([13]; rate 63 g ai/ha): 10 | Pre-emerge Herbicidal Activity ECHCG ([13]; rate 250 g ai/ha): 60 | Pre-emerge Herbicidal Activity CHEAL ([14]; rate 63 g ai/ha): 100 | Pre-emerge Herbicidal Activity CHEAL ([14]; rate 250 g ai/ha): 100 | Pre-emerge Herbicidal Activity IPOHE ([15]; rate 63 g ai/ha): 60 | Pre-emerge Herbicidal Activity IPOHE ([15]; rate 250 g ai/ha): 30 | Pre-emerge Herbicidal Activity CASOB ([16]; rate 63 g ai/ha): 50 | Pre-emerge Herbicidal Activity CASOB ([16]; rate 250 g ai/ha): 100 | Pre-emerge Herbicidal Activity ABUTH ([17]; rate 63 g ai/ha): 100 | Pre-emerge Herbicidal Activity ABUTH ([17]; rate 250 g ai/ha): 100 | Pre-emerge Herbicidal Activity SETVI ([18]; rate 63 g ai/ha): 80 | Pre-emerge Herbicidal Activity SETVI ([18]; rate 250 g ai/ha): 100 | Pre-emerge Herbicidal Activity RICE ([19]; rate 63 g ai/ha): 10 | Pre-emerge Herbicidal Activity RICE ([19]; rate 250 g ai/ha): 70 | Pre-emerge Herbicidal Activity CORN ([20]; rate 63 g ai/ha): 0 | Pre-emerge Herbicidal Activity CORN ([20]; rate 250 g ai/ha): 10 | Post-emerge Herbicidal Activity RICE ([21]; 63 g ai/ha): 30 | Post-emerge Herbicidal Activity RICE ([21]; 250 g ai/ha): 30 | Post-emerge Herbicidal Activity CORN ([22]; 63 g ai/ha): 30 | Post-emerge Herbicidal Activity CORN ([22]; 250 g ai/ha): 45
